SMILES strings stand for the structures.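 Briefly, cells in 96-well plates were exposed to five compound concentrations for 48 h, and endpoints were estimated by linear interpolation. TGI: total growth inhibition.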

This note sets out measurements from PubChem BioAssay (NCI).

What all share (experiment): NCI tumour cell line growth inhibition, 48 h
Assay [1] has as its system SN12C renal.
Assay [2] concerns SK-MEL-5 melanoma.
For assay [3], the system named is MOLT-4 leukemia.
The test system of assay [4] is NCI-H522 lung.
The subject of assay [5] is IGROV1 ovarian.
The subject of assay [6] is OVCAR-8 ovarian.
The subject of assay [7] is TK-10 renal.
For assay [8], the system named is HT29 colon.
Assay [9] relates to M14 melanoma.

Take `O=C(CC1(O)C(=O)Nc2ccccc21)c1cccc(O)c1` (configuration not stated): the TGI in [1], in [2], in assay [3], in assay [4], in assay [5] and in assay [6] was over 100 µM in each case. Besides, the TGI in [7], in [8] and in [9] was over 100 µM each time.

In the case of `CCN(CC)c1ccc(N=Nc2ccc(-c3nc4cccnc4s3)cc2)cc1`, the TGI in [1], in assay [2], in assay [3], in assay [4], in assay [5] and in [6] was over 100 µM in each case. Besides, the TGI in [7], in assay [8] and in assay [9] was over 100 µM each time.

As to `CCOC(=O)C(=O)CC(=O)C(Br)C(Br)c1ccc(Cl)cc1` (configuration not stated), the TGI was over 100 µM in [1]; over 100 µM in assay [2]; 53 µM in assay [3]; 45.7 µM in [4]; over 100 µM in assay [5]; over 100 µM in [6]. The TGI in [7] was over 100 µM; in [8] it was 34.7 µM; in assay [9], 50.7 µM.

For the compound `O=C1CCNC/C1=C\c1ccccc1`, the TGI in [1] is over 100 µM; in [2] it was 40.2 µM; in [3] it was over 100 µM; in [4], 23.4 µM; in assay [5] it was over 100 µM; in assay [6], 43.4 µM. Besides, the TGI in assay [7] is 61.2 µM; in assay [8], 32.9 µM; in [9], 27.9 µM.

`Nc1ncc(CN2CCCC2)c(-c2ccccc2O)n1`: the TGI in assay [1], in assay [2], in assay [3], in assay [4], in [5] and in [6] was over 750 µM in each case. Moreover, the TGI in assay [7], in assay [8] and in [9] was over 750 µM each time.

On to `CO[C@H]1C[C@H](O[C@H]2CC[C@@]3(C)[C@H](CC[C@@H]4[C@@H]3CC[C@]3(C)[C@@H](C5=CC(=O)OC5)CC[C@]43O)C2)O[C@H](C)[C@H]1O`, for which the TGI worked out at 0.0111 µM in assay [1]; 0.0469 µM in assay [2]; 0.0197 µM in [4]; 0.113 µM in assay [5]; 0.0245 µM in assay [6]; 0.0482 µM in assay [7]. Also, the results for the TGI in assay [8] and in assay [9] were 0.0552 µM and 0.0607 µM, respectively.

As to `CC(C)(c1ccc(C=O)o1)c1ccc(C(C)(C)c2ccc(C=O)o2)o1`, the TGI in assay [3], in assay [4], in assay [5], in [6], in assay [7] and in [8] was over 100 µM each time.

On to `O=[N+]([O-])c1ccc(N=P(c2ccccc2)(c2ccccc2)c2ccccc2)n2nnnc12`, for which the TGI in assay [1], in assay [2], in assay [3], in [4], in [5] and in [6] was over 100 µM in each case. In addition, the TGI in [7], in assay [8] and in [9] was over 100 µM each time.

With `COC1=CC(=O)C2(C=C1OC)OC[C@H]1Oc3c(ccc4c3C=CC(C)(C)O4)C(=O)[C@H]12` (some centres not stated), the TGI in [3] was 85.6 µM; in assay [4] it was 51.5 µM; in assay [5] it was over 100 µM; in [6], over 100 µM; in assay [7] it was over 100 µM; in assay [8] it was over 100 µM. Moreover, the TGI in assay [9] was over 100 µM.

Take `CC(=O)OC1(C(C)=O)CC2(c3ccccc3)OC1(c1ccccc1)c1ccccc12` (configuration not stated): the TGI in assay [1] is over 100 µM; in assay [2] it was 8.53 µM; in [3], 40.1 µM; in assay [4], 29.8 µM; in [5] it was 56.7 µM; in [6], over 100 µM. Further, the TGI in assay [7], in [8] and in [9] was over 100 µM in each case.

For the compound `O=C1c2c(c3c4ccccc4n(CC4CO4)c3c3[nH]c4ccccc4c23)C(=O)N1Cc1ccccc1` (configuration not stated), the TGI in assay [1], in [3], in assay [4], in [5], in assay [6] and in assay [7] was over 100 µM throughout. Also, the TGI in [8] and in assay [9] was over 100 µM in each case.

As for `CCCCCCNC(=O)CCN(C(=O)O)S(=O)(=O)c1ccc(NC(=O)c2ccccc2)cc1`, the TGI is over 100 µM in [1]; over 100 µM in assay [2]; over 60.1 µM in assay [3]; over 100 µM in assay [4]; over 100 µM in assay [5]; over 100 µM in assay [6]. The TGI in assay [7], in [8] and in [9] was over 100 µM in each case.

Turning to `COc1cccc(NC(=O)/C(CS(=O)(=O)CCC(C(C)=O)C(C)=O)=N\NC(C)(C)C)c1`, the TGI in assay [1], in assay [2], in [3], in assay [4], in [5] and in [6] was over 100 µM throughout. The TGI in assay [7], in assay [8] and in [9] was over 100 µM each time.

As to `COc1ccc(N2C(=O)[C@@H]3[C@@H]4CC(C)CC[C@@H]4c4c([nH]c5ccccc45)[C@@H]3C2=O)cc1` (some centres not stated), the TGI in assay [1] was 32.5 µM; in assay [2] it was over 100 µM; in [3] it was 61.3 µM; in assay [4] it was over 55 µM; in assay [5], 49.7 µM; in assay [6], 40.1 µM. The results for the TGI in assay [7], in assay [8] and in assay [9] were 45.6 µM, over 100 µM and over 74.9 µM, respectively.

For the compound `COc1cc(O)c(C(=O)C2Cc3ccccc32)c(OC)c1` (configuration not stated), the TGI in assay [1] is over 100 µM; in assay [2] it was over 100 µM; in assay [3] it was 45.8 µM; in assay [4] it was over 100 µM; in assay [5], over 100 µM; in assay [6] it was over 100 µM. Further, the TGI in assay [7], in assay [8] and in assay [9] was over 100 µM in each case.

Consider `COC1=CC(=O)[C@@]2(C)C(C)[C@H](c3ccccc3)[C@H]2C1=O` (some centres not stated), for which the TGI in assay [2], in assay [3], in [4], in assay [5], in assay [6] and in assay [7] was over 100 µM throughout. Also, the TGI in assay [8] and in assay [9] was over 100 µM throughout.

For `CC(=O)OC1COC(N2C(=O)C(=O)c3ccccc32)C(OC(C)=O)C1OC(C)=O` (configuration not stated), the TGI in assay [1], in [2], in assay [3], in assay [4], in [5] and in [6] was over 100 µM each time. Also, the TGI in assay [7], in assay [8] and in assay [9] was over 100 µM in each case.

Turning to `CSCSCC(CO)NC(=O)/C=C/c1c(C)[nH]c(=O)[nH]c1=O` (configuration not stated), the TGI in assay [1], in assay [2], in [3], in assay [6], in [7] and in assay [8] was over 100 µM throughout. This compound had a TGI in assay [9] of over 100 µM.

In the case of `O=C(CC(C(=O)c1ccsc1)c1cccs1)c1cccs1` (configuration not stated), the TGI in assay [1] was over 100 µM; in assay [2], 85.6 µM; in assay [3] it was over 100 µM; in assay [4], over 100 µM; in assay [5] it was over 100 µM; in assay [6], over 100 µM. Also, the TGI in assay [7], in [8] and in assay [9] was over 100 µM each time.

For the compound `C#Cc1c(C)c(/C=C/C(C)=C\C(=O)OC)n(C)c1C`, the TGI in assay [1], in assay [3], in [4], in assay [5], in assay [6] and in [7] was over 100 µM throughout. Moreover, the TGI in assay [8] and in [9] was over 100 µM in each case.

Turning to `CCN(CC)C(=O)Cc1[nH][nH]c(=O)c1C(=O)N(CC)CC`, the TGI in [1], in assay [3], in assay [4], in assay [5], in [6] and in assay [7] was over 100 µM throughout. Also, the TGI in assay [8] and in assay [9] was over 100 µM throughout.

For the compound `C=C1C(=O)C23C(O)CC4C(C)(C)CCC(O)C4(C)C2CC(OC(C)=O)C1[C@H]3O` (some centres not stated), the TGI in assay [1] is 12 µM; in [3], 8.08 µM; in assay [4] it was 0.638 µM; in [6], 2.83 µM; in assay [7] it was 3.72 µM; in [9], 12.1 µM.

Regarding `N#Cc1sc2nc3c(c(-c4ccccc4)c2c1N)CCCC3`, the TGI in assay [1], in assay [3], in assay [4], in assay [6], in assay [7] and in [8] was over 100 µM each time.

Turning to `CCOC(=O)C(Oc1ccc(OC)c2c1C(=O)CCC2)c1ccccc1` (configuration not stated), the TGI in assay [1], in [2], in [3], in assay [4], in assay [5] and in assay [6] was over 100 µM in each case. Moreover, the TGI in [7], in assay [8] and in assay [9] was over 100 µM throughout.

`NN=C1/C(=C\c2ccccc2)CCC/C1=C/c1ccccc1`: the TGI was over 100 µM in assay [1]; 37.4 µM in assay [3]; 36.1 µM in assay [4]; over 100 µM in assay [5]; over 100 µM in [6]; over 100 µM in assay [7]. Besides, in assay [9], the TGI was over 100 µM.

`O=C1N(c2ccc(Cl)cc2)C(=O)C2(SC=NN2Cc2ccccc2)N1c1ccc(Cl)cc1` (configuration not stated): the TGI in assay [1], in [2], in assay [3], in assay [4], in assay [5] and in [6] was over 100 µM in each case. Moreover, the TGI in assay [7], in assay [8] and in [9] was over 100 µM in each case.

Take `COC(=O)CC(=O)OC1C[C@@H]2CCC3C(C)(C)CCC[C@]3(C)C23CC[C@@]1(C)C3` (some centres not stated): the TGI in assay [1] is 31.3 µM; in assay [2], 31.7 µM; in [3], over 100 µM; in assay [4] it was 25.7 µM; in [5], 31.8 µM; in assay [6], 36.8 µM. Besides, the TGI amounted to 34.3 µM in [7], 35.1 µM in [8] and 33.7 µM in [9].

As to `Cc1cc2c3ccccc3n3c2c2c1OC1(C)CCC(C2C1)C3(C)C` (configuration not stated), the TGI in assay [1], in [2], in [3], in assay [4], in assay [5] and in assay [6] was over 25 µM throughout. Further, the TGI in [7], in [8] and in assay [9] was over 25 µM each time.

Regarding `COC(OC)c1cccc2c1C(=O)CCC1(CC2)OCCCCO1`, the TGI in [1], in assay [2], in [3], in assay [4], in [5] and in assay [6] was over 100 µM in each case. Also, the TGI in assay [7], in assay [8] and in [9] was over 100 µM each time.

On to `CN(C(=O)C12C3C4C1C1C2C3C41C#N)C(C)(C)C` (configuration not stated), for which the TGI in assay [1], in assay [2], in assay [3], in [4], in assay [5] and in [6] was over 100 µM throughout. For the same compound, the TGI in [7], in assay [8] and in assay [9] was over 100 µM in each case.

In the case of `CN1C/C(=C\c2ccccc2)C2=NN(C(N)=S)[C@H](c3ccccc3)[C@@H]2C1`, the TGI in [1], in assay [3], in [4], in assay [5], in [7] and in assay [8] was over 100 µM in each case. Also, the TGI in assay [9] was over 100 µM.
